Test results published in ChEMBL document CHEMBL5154826, “Discovery of the Clinical Candidate MAK683: An EED-Directed, Allosteric, and Selective PRC2 Inhibitor for the Treatment of Advanced Malignancies” (J Med Chem, 2022).
≈ marks a conversion by molar mass, not a printed value.

Legend:
[1] = Drug metabolism in human liver microsomes assessed as CYP3A4 mediated M3 metabolite formation at 1 uM preincuabted for 5 mins followed by NADPH addition and measured after 20 mins by LC-MS/MS analysis; type: ADME, Microsome; conditions: 25 min
[2] = Inhibition of PRC2 (unknown origin) assessed as reduction in H3K27 trimethylation using H3K27Me0 peptide (21 to 44 residues) as substrate by measuring SAH formation by LC-MS analysis; set-up: species or system Homo sapiens
Cytochrome P450 3A4 = Cytochrome P450 3A4 (Homo sapiens, UniProt P08684); assay: Inhibition of CYP3A4 in human liver microsomes using midazolam as substrate incubated for 10 mins in presence of NADPH by LC-MS/MS analysis; type: ADME, Microsome
Chain of Cytochrome P450 3A4 (P08684 whole entry): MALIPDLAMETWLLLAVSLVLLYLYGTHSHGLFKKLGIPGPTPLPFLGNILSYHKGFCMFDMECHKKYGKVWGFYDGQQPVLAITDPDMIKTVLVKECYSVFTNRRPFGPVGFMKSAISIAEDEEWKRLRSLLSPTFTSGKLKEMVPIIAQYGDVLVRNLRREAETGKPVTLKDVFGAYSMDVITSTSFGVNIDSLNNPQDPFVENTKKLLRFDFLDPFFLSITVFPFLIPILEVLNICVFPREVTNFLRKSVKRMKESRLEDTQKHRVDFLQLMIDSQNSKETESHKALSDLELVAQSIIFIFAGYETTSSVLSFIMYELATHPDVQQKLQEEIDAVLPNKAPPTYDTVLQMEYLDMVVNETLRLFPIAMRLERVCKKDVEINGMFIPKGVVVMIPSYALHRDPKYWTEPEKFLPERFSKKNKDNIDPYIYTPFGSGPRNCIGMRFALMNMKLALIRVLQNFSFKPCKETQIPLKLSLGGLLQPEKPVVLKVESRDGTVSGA

cells = conditions: Homo sapiens, G-401, 48 h
Description: Inhibition of PRC2 in human G-401 cells assessed as H3K27 methylation status incubated for 48 hrs by ELISA method

[3] = Toxicity in Wistar Han rat assessed as histological changes in lung at 30 to 400 mg/kg/day,po for 15 days by Hematoxylin and eosin staining based microscopic analysis; type: organism-based; conditions: in vivo, 360 h, dose 30-400 mg/kg/day, time 15 day
[4] = Permeability across apical to basolateral side in human Caco-2 cells at 10 uM incubated for 2 hrs by LC/MS/MS analysis; type: ADME, cell-based; conditions: Caco-2, read-out: permeability
[5] = Drug metabolism in bile duct cannulated Wistar Han rat assessed as unmodified compound recovery in urine at 3 mg/kg, iv after 8 hrs by LC-MS/MS analysis; type: ADME, organism-based; conditions: read-out: Drug metabolism
[6] = Oral bioavailability in Sprague-Dawley rat at 2 mg/kg; type: ADME, organism-based; conditions: in vivo
[7] = High throughput solubility of the compound at pH 6.8 after 16 to 24 hrs by MS/MS analysis; type: physicochemical; conditions: buffer, time 16-24 hrs
[8] = Dose normalized AUC in Sprague-Dawley rat at 2 mg/kg, po; type: ADME, organism-based; conditions: in vivo
[9] = Lipophilicity, logD of the compound at pH 7.4 by LC with tandem MS analysis; type: physicochemical; conditions: buffer, read-out: logD
[10] = Terminal half life in Sprague-Dawley rat at 2 mg/kg, po; type: ADME, organism-based; conditions: in vivo, read-out: beta t1/2 (converted)
[11] = Drug metabolism in rat liver hepatocytes assessed as CYP3A4 M3 metabolite formation at 1 uM preincuabted for 5 mins followed by NADPH addition and measured after 20 mins by LC-MS/MS analysis; type: ADME, cell-based, Hepatocyte
Cytochrome P450 2D6 = Cytochrome P450 2D6 (Homo sapiens, UniProt P10635); assay: Inhibition of CYP2D6 in human liver microsomes using bufuralol as substrate incubated for 10 mins in presence of NADPH by LC-MS/MS analysis; type: ADME, Microsome
Chain of Cytochrome P450 2D6 (P10635 whole entry): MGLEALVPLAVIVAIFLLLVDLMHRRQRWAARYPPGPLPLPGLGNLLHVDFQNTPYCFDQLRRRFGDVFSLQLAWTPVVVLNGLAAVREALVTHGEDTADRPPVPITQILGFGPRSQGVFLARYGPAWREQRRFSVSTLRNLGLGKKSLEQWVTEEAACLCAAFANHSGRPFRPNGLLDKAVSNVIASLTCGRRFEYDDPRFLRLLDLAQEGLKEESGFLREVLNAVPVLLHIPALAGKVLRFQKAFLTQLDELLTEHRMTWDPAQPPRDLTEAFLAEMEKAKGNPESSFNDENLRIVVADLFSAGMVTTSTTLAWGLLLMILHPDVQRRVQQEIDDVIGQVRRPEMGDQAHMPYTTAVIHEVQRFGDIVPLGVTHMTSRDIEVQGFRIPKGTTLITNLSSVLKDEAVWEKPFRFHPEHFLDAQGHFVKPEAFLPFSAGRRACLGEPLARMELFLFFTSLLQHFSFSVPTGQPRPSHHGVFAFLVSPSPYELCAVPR

KARPAS-422 = assay: Antiproliferative activity against human KARPAS-422 cells expressing EZH2 mutant assessed as inhibition of cell growth after 14 days by beckman coulter counting method; type: functional; conditions: Homo sapiens, KARPAS-422, 336 h; time 14 day
[12] = Toxicity in Wistar Hannover rat assessed as infiltration of immune cells at 30 to 400 mg/kg/day, po for 15 days by Hematoxylin and eosin staining based microscopic analysis; type: organism-based; conditions: in vivo, 360 h, DDE = dose-dependent effect, dose 30-400 mg/kg/day, time 15 day
[13] = Efflux ratio of apparent permeability across basolateral to apical side over apical to basolateral side in human Caco-2 cells at 10 uM incubated for 2 hrs by LC/MS/MS analysis; type: ADME, cell-based
[14] = Drug metabolism in human liver hepatocytes assessed as CYP3A4 M3 metabolite formation at 1 uM preincuabted for 5 mins followed by NADPH addition and measured after 20 mins by LC-MS/MS analysis; type: ADME, cell-based, Hepatocyte
[15] = Drug metabolism in bile duct cannulated Wistar Han rat assessed as unmodified compound recovery in bile at 3 mg/kg, iv after 8 hrs by LC-MS/MS analysis; type: ADME, organism-based; conditions: read-out: Drug metabolism
[16] = Toxicity in Wistar Hannover rat assessed as degeneration of cortical adrenal gland at 30 to 400 mg/kg/day, po for 15 days by Hematoxylin and eosin staining based microscopic analysis; type: organism-based; conditions: in vivo, 360 h, DDE = dose-dependent effect, dose 30-400 mg/kg/day, time 15 day
[17] = biological target: T1, Alpha-2C adrenergic receptor (Homo sapiens, UniProt P18825); assay: Inhibition of alpha2c adrenergic receptor (unknown origin)
T1 sequence (P18825 whole entry): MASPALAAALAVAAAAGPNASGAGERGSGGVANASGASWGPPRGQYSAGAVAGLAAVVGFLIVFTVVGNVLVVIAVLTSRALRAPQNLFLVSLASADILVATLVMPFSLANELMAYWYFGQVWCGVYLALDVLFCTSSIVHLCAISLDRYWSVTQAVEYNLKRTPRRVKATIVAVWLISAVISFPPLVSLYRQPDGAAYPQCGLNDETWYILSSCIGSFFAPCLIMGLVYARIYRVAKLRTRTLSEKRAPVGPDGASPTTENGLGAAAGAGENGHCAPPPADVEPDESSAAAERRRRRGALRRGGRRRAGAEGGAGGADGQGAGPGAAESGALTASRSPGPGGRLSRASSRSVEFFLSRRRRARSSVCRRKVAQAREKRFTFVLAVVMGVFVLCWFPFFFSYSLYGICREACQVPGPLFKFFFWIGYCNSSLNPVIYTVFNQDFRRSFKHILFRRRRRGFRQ

[18] = Toxicity in Wistar Han rat assessed as histological changes in kidney at 30 to 400 mg/kg/day, po for 15 days by Hematoxylin and eosin staining based microscopic analysis; type: organism-based; conditions: in vivo, 360 h, dose 30-400 mg/kg/day, time 15 day
Cytochrome P450 2C9 = Cytochrome P450 2C9 (Homo sapiens, UniProt P11712); assay: Inhibition of CYP2C9 in human liver microsomes using diclofenac as substrate incubated for 10 mins in presence of NADPH by LC-MS/MS analysis; type: ADME, Microsome
Chain of Cytochrome P450 2C9 (P11712 whole entry): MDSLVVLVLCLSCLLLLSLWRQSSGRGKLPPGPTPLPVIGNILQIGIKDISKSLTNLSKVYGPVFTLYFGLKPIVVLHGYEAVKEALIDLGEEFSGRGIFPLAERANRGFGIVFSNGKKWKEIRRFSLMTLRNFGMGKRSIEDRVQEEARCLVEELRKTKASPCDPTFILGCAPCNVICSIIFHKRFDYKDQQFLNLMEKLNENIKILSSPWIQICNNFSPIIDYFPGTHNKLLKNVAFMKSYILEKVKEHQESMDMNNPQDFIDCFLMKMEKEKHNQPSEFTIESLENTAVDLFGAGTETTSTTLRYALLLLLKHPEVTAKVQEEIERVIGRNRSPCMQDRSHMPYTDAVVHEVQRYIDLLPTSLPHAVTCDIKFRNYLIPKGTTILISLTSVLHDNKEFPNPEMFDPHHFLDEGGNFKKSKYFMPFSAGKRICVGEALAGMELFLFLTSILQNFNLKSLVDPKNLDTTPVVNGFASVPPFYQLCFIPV

[19] = biological target: 3',5'-cyclic-AMP phosphodiesterase 4D (Homo sapiens, UniProt Q08499); assay: Inhibition of human Phosphodiesterase 4D
Chain of 3',5'-cyclic-AMP phosphodiesterase 4D (Q08499 whole entry): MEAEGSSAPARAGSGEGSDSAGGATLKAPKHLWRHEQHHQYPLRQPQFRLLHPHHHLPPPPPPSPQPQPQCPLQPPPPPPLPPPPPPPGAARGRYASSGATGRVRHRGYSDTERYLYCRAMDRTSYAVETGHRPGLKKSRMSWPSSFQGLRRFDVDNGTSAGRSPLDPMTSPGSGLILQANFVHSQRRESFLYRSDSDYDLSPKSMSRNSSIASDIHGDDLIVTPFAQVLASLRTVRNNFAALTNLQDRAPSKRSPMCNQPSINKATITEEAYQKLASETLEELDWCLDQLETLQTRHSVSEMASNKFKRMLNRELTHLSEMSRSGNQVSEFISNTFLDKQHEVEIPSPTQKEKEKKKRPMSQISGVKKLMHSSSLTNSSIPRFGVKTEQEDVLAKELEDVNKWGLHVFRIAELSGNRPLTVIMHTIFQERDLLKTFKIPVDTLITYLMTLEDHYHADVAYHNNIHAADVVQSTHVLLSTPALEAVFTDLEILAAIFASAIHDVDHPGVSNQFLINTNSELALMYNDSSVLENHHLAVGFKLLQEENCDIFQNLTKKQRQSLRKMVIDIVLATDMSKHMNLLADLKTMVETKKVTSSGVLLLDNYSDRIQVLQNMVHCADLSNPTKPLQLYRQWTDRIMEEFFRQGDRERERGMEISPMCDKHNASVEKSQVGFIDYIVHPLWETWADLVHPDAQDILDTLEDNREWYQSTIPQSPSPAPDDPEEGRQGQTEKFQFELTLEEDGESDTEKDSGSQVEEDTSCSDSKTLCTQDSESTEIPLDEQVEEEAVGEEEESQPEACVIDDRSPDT

[20] = biological target: T2, Alpha-2A adrenergic receptor (Homo sapiens, UniProt P08913); assay: Antagonist activity against alpha2a adrenergic receptor (unknown origin); type: functional
T2 sequence (P08913 whole entry): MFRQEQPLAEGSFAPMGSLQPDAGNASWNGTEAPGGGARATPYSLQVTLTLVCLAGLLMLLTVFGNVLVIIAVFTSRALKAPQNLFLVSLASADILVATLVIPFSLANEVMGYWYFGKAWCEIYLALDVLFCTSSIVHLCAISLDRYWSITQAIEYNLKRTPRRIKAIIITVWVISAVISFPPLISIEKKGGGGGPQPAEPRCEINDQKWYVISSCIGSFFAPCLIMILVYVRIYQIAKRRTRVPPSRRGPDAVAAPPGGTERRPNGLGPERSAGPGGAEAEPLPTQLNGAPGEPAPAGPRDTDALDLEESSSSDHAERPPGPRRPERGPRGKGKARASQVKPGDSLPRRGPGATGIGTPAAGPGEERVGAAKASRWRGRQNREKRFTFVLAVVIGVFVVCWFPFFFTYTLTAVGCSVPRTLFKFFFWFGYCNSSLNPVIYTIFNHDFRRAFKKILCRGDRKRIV

[21] = Drug metabolism in rat liver microsomes assessed as CYP3A4 mediated M3 metabolite formation at 1 uM preincuabted for 5 mins followed by NADPH addition and measured after 20 mins by LC-MS/MS analysis; type: ADME, Microsome; conditions: 25 min
[22] = Toxicity in Wistar Han rat assessed as histological changes in liver at 30 to 400 mg/kg/day, po for 15 days by Hematoxylin and eosin staining based microscopic analysis; type: organism-based; conditions: in vivo, 360 h, dose 30-400 mg/kg/day, time 15 day

CS(=O)(=O)c1ccc(-c2cnc(NCc3ccco3)n3cnnc23)cc1
Drug metabolism [1]: Metabolite_Detected | IC50 [2]: 0.022 µM | IC50 (Cytochrome P450 3A4): > 50 µM | IC50 (cells): 0.22 µM | Activity [3]: Non-Toxic | Papp A→B at 2 h, 10 µM [4]: 3 ×10⁻⁶ cm/s | dose excreted at 8 h [5]: 0.9% | bioavailability [6]: 62% | solubility [7]: 12 µM (≈ 4.43 µg/mL) | AUC/dose [8]: 1948 nM·h | logD [9]: 1.8 | half-life [10]: 1.6 h | Drug metabolism [11]: Metabolite_Detected | IC50 (Cytochrome P450 2D6): > 50 µM | GI50 (KARPAS-422): 0.08 µM | Activity [12]: Dde | efflux ratio at 2 h, 10 µM [13]: 7.6 | Drug metabolism [14]: Metabolite_Detected | dose excreted at 8 h [15]: 0.5% | Activity [16]: Dde | IC50 [17]: 14 µM | Activity [18]: Non-Toxic | IC50 (Cytochrome P450 2C9): > 50 µM | IC50 [19]: 20 µM | IC50 [20]: 15 µM | Drug metabolism [21]: Metabolite_Detected | Activity [22]: Non-Toxic
